What was measured:
[1] = system: DLD-1; assay: in vitro cytotoxicity evaluation, Colon Cancer; format: cell-based; conditions: Homo sapiens, 48 h, DLD-1, two days, sulforhodamine B
Protocol: (§1) These assays were carried out at the Developmental Therapeutics Program, Division of Cancer Treatment, National Cancer Institute (Bethesda, Md., USA). The method consists of incubating varying concentrations of the drug with an inoculum of cells for two days.
(§2) It should be noted that the first two parameters (GI50 and TGI) relate to antiproliferation effects while the third one (LC50) indicates true cytotoxicity.

[2] = system: HT 29; assay: in vitro cytotoxicity evaluation, Colon Cancer; format: cell-based; conditions: Homo sapiens, 48 h, HT 29, two days, sulforhodamine B
Protocol: as §1, §2

[3] = system: Colo 205; assay: in vitro cytotoxicity evaluation, Colon Cancer; format: cell-based; conditions: Homo sapiens, 48 h, Colo 205, two days, sulforhodamine B
Protocol: as §1, §2

[4] = system: HCT-15; assay: in vitro cytotoxicity evaluation, Colon Cancer; format: cell-based; conditions: Homo sapiens, 48 h, HCT-15, two days, sulforhodamine B
Protocol: as §1, §2

[5] = system: KM 12; assay: in vitro cytotoxicity evaluation, Colon Cancer; format: cell-based; conditions: Homo sapiens, KM12, 48 h, KM 12, two days, sulforhodamine B
Protocol: as §1, §2

[6] = system: MK20L2; assay: in vitro cytotoxicity evaluation, Colon Cancer; format: cell-based; conditions: Homo sapiens, 48 h, MK20L2, two days, sulforhodamine B
Protocol: as §1, §2

[7] = system: SW-620; assay: in vitro cytotoxicity evaluation, Colon Cancer; format: cell-based; conditions: Homo sapiens, 48 h, SW-620, two days, sulforhodamine B
Protocol: as §1, §2

[8] = system: HCT-116; assay: in vitro cytotoxicity evaluation, Colon Cancer; format: cell-based; conditions: Homo sapiens, 48 h, HCT-116, two days, sulforhodamine B
Protocol: as §1, §2

[9] = system: OVCAR-4; assay: in vitro cytotoxicity evaluation, Ovarian Cancer; format: cell-based; conditions: Homo sapiens, 48 h, OVCAR-4, two days, sulforhodamine B
Protocol: as §1, §2

[10] = system: SK-OV-3; assay: in vitro cytotoxicity evaluation, Ovarian Cancer; format: cell-based; conditions: Homo sapiens, 48 h, SK-OV-3, two days, sulforhodamine B
Protocol: as §1, §2

[11] = system: OVCAR-8; assay: in vitro cytotoxicity evaluation, Ovarian Cancer; format: cell-based; conditions: Homo sapiens, 48 h, OVCAR-8, two days, sulforhodamine B
Protocol: as §1, §2

[12] = system: OVCAR-3; assay: in vitro cytotoxicity evaluation, Ovarian Cancer; format: cell-based; conditions: Homo sapiens, 48 h, OVCAR-3, two days, sulforhodamine B
Protocol: as §1, §2

[13] = system: OVCAR-5; assay: in vitro cytotoxicity evaluation, Ovarian Cancer; format: cell-based; conditions: Homo sapiens, 48 h, OVCAR-5, two days, sulforhodamine B
Protocol: as §1, §2

[14] = system: IGROV-1; assay: in vitro cytotoxicity evaluation, Ovarian Cancer; format: cell-based; conditions: Homo sapiens, 48 h, IGROV-1, two days, sulforhodamine B
Protocol: as §1, §2

[15] = system: MOLT-4; assay: in vitro cytotoxicity evaluation, Leukemia; format: cell-based; conditions: Homo sapiens, 48 h, MOLT-4, two days, sulforhodamine B
Protocol: as §1, §2

[16] = system: CCRF-CEM; assay: in vitro cytotoxicity evaluation, Leukemia; format: cell-based; conditions: Homo sapiens, 48 h, two days, sulforhodamine B
Protocol: as §1, §2

[17] = system: RPMI-8226; assay: in vitro cytotoxicity evaluation, Leukemia; format: cell-based; conditions: Homo sapiens, 48 h, RPMI-8226, two days, sulforhodamine B
Protocol: as §1, §2

[18] = system: 59 tumor cell lines; assay: in vitro cytotoxicity evaluation, whole panel; format: cell-based, human
Protocol: as §1, §2

[19] = system: RXF-631; assay: in vitro cytotoxicity evaluation, Renal Cancer; format: cell-based; conditions: Homo sapiens, 48 h, RXF-631, two days, sulforhodamine B
Protocol: as §1, §2

[20] = system: 786-O; assay: in vitro cytotoxicity evaluation, Renal Cancer; format: cell-based; conditions: Homo sapiens, 786-0, 48 h, two days, sulforhodamine B
Protocol: as §1, §2

[21] = system: DMS 273; assay: in vitro cytotoxicity evaluation, Small Cell Lung Cancer; format: cell-based; conditions: Homo sapiens, 48 h, DMS 273, two days, sulforhodamine B
Protocol: as §1, §2

[22] = read-out: LOG10 G150 (GI50) (converted)
[23] = read-out: Log10 LC50 (converted)
[24] = read-out: Log10 TGI (converted)

Which results are given for COc1c2c(c(OC)c3c(=O)c4ccccc4sc13)CS(=O)(=O)[C@@H]2O[C@H]1C[C@H](N)[C@H](O)[C@H](C)O1 [BCH-255, (1S ) 1-daunosamine-4-11-dimethoxy-5-oxo-5-H-1,3-dihydrothioxantheno [2,3-c] thiophene-2,2-dioxide]?
GI50 [1, 22]: 24.5 µM; LC50 [1, 23]: > 100 µM; IC (total growth inhibition (TGI)) [1, 24]: 67.6 µM; GI50 [2, 22]: 17.8 µM; CC50 [2, 23]: 61.7 µM; IC (total growth inhibition (TGI)) [2, 24]: 33.1 µM; GI50 [3, 22]: 17.8 µM; CC50 [3, 23]: 77.6 µM; IC (total growth inhibition (TGI)) [3, 24]: 37.2 µM; GI50 [4, 22]: 19.1 µM; CC50 [4, 23]: 95.5 µM; IC (total growth inhibition (TGI)) [4, 24]: 42.7 µM; GI50 [5, 22]: 18.2 µM; CC50 [5, 23]: 87.1 µM; IC (total growth inhibition (TGI)) [5, 24]: 39.8 µM; GI50 [6, 22]: 17 µM; CC50 [6, 23]: 57.5 µM; IC (total growth inhibition (TGI)) [6, 24]: 30.9 µM; GI50 [7, 22]: 20.4 µM; CC50 [7, 23]: 67.6 µM; IC (total growth inhibition (TGI)) [7, 24]: 37.2 µM; GI50 [8, 22]: 20.4 µM; CC50 [8, 23]: 75.9 µM; IC (total growth inhibition (TGI)) [8, 24]: 39.8 µM; GI50 [9, 22]: 18.2 µM; CC50 [9, 23]: 64.6 µM; IC (total growth inhibition (TGI)) [9, 24]: 34.7 µM; GI50 [10, 22]: 19.1 µM; CC50 [10, 23]: 85.1 µM; IC (total growth inhibition (TGI)) [10, 24]: 40.7 µM; GI50 [11, 22]: 19.5 µM; CC50 [11, 23]: 74.1 µM; IC (total growth inhibition (TGI)) [11, 24]: 38 µM; GI50 [12, 22]: 15.5 µM; CC50 [12, 23]: 64.6 µM; IC (total growth inhibition (TGI)) [12, 24]: 31.6 µM; GI50 [13, 22]: 39.8 µM; CC50 [13, 23]: > 100 µM; IC (total growth inhibition (TGI)) ([13]; read-out: Log10 TGI): > 100 µM; GI50 [14, 22]: 16.6 µM; CC50 [14, 23]: 87.1 µM; IC (total growth inhibition (TGI)) [14, 24]: 38 µM; GI50 [15, 22]: 19.1 µM; CC50 [15, 23]: 87.1 µM; IC (total growth inhibition (TGI)) [15, 24]: 40.7 µM; GI50 [16, 22]: 17.8 µM; CC50 [16, 23]: 97.7 µM; IC (total growth inhibition (TGI)) [16, 24]: 41.7 µM; GI50 [17, 22]: 16.2 µM; CC50 [17, 23]: > 100 µM; IC (total growth inhibition (TGI)) [17, 24]: 40.7 µM; DELTA of Log10 TGI ([18]; DELTA over the panel): 0.13; CC50 ([18]; Homo sapiens, 48 h, MG MID over the panel, read-out: MG MID of Log10 LC50 (converted)): 75.9 µM; IC (TGI) ([18]; Homo sapiens, 48 h, MG MID over the panel, read-out: MG MID of Log10 TGI (converted)): 40.7 µM; GI50 ([18]; Homo sapiens, MG MID over the panel, read-out: MG MID of LOG10 G150 (GI50) (converted)): 20 µM; RANGE of Log10 TGI ([18]; RANGE over the panel): 0.52; cytotoxicity ([18]; solid tumors and leukemia cell lines): all the cell lines of solid tumors and leukemia showed cytotoxcity to the drug; spectrum of antitumor activity ([18]; tumor cell line panel): wide spectrum of antitumor activity; GI50 [19, 22]: 20 µM; CC50 [19, 23]: > 100 µM; IC (total growth inhibition (TGI)) [19, 24]: 46.8 µM; GI50 [20, 22]: 16.2 µM; CC50 [20, 23]: 58.9 µM; IC (total growth inhibition (TGI)) [20, 24]: 30.9 µM; GI50 [21, 22]: 18.2 µM; CC50 [21, 23]: 70.8 µM; IC (total growth inhibition (TGI)) [21, 24]: 35.5 µM

Reference: patent publication US5348946A, “Heteroanthracycline antitumor analogs” (Biochem Immunosystems, Inc., priority 1991, dated 1994)
